From the CheMixHub ionic liquid set

Experiment: xn = mol fraction of the nth substance listed

CCC[n+]1ccccc1.N#C[N-]C#N + O
100 kPa
Details	electrical conductivity [S/m]	viscosity [mPa·s]
298.15 K, x1 = 0.9303	1.49	–
298.15 K, x1 = 0.9562	–	22.43
298.15 K, x1 = 0.9708	–	23.39
303.15 K, x1 = 0.9303	1.68	–
303.15 K, x1 = 0.9442	1.64	–
303.15 K, x1 = 0.9731	1.57	–
313.15 K, x1 = 0.9277	–	13.05
313.15 K, x1 = 0.9562	–	13.71
313.15 K, x2 = 0.01178	2.12	–
318.15 K, x1 = 0.9442	2.6	–
318.15 K, x1 = 0.9708	–	12.47
323.15 K, x1 = 0.9277	–	9.72
323.15 K, x1 = 0.9442	2.95	–
323.15 K, x1 = 0.9731	2.87	–
328.15 K, x1 = 0.9417	–	8.63
328.15 K, x1 = 0.9562	–	8.88
333.15 K, x1 = 0.9442	3.81	–
333.15 K, x1 = 0.9731	3.72	–
338.15 K, x1 = 0.9562	–	7.17
338.15 K, x1 = 0.9584	4.22	–

CCCCCCCCCCCCCC[P+](CCCCCC)(CCCCCC)CCCCCC.N#Cc1ccc[n-]1 + CCCCCC[n+]1ccn(C)c1C.O=S(=O)([N-]S(=O)(=O)C(F)(F)F)C(F)(F)F
100 kPa
Details	viscosity [mPa·s]
278.15 K, x2 = 0.799	900
283.15 K, x2 = 0.601	900
288.15 K, x2 = 0	800
288.15 K, x2 = 0.098	870
288.15 K, x2 = 0.301	760

CCCC(C)O (centres undefined) + CCCCCC[n+]1ccn(C)c1.O=[N+]([O-])[O-]
Details	viscosity [mPa·s]
323.15 K, 100 kPa, x2 = 0	1.39

CCCC[N+](CCCC)(CCCC)CCCC.[Cl-] + C[C@@H](O)[C@H](N)C(=O)O
101 kPa
Details	electrical conductivity, x2 = 0.09091 [S/m]	electrical conductivity, x2 = 0.1 [S/m]	electrical conductivity, x2 = 0.1111 [S/m]	viscosity, x2 = 0.09091 [mPa·s]	viscosity, x2 = 0.1 [mPa·s]	viscosity, x2 = 0.1111 [mPa·s]
303.15 K	0.0086	0.0049	0.0067	223	179	1020
313.15 K	0.0157	0.0117	0.0135	131	104	630
323.15 K	0.0279	0.0199	0.0236	73	68	322
333.15 K	0.039	0.0311	0.036	46	43	186
343.15 K	0.045	0.0402	–	34	31	109
353.15 K	0.0583	0.0516	0.0569	24	24	63

CS(C)=O + CC(N)C(=O)[O-].COCCCCn1cc[n+](C)c1
Details	viscosity [mPa·s]
308.15 K, 100 kPa, x2 = 0	1.65

CCCC[N+](CCCC)(CCCC)CCCC.[Cl-] + NCCCO
viscosity [mPa·s], 101.3 kPa
Details	293.15 K	298.15 K	303.15 K	308.15 K	313.15 K	318.15 K	323.15 K	328.15 K	333.15 K
x2 = 0.8	101.4	77.4	57.8	44.6	36.2	28.9	23.4	19.4	16.1
x2 = 0.8571	70.7	53.9	41.7	32.8	26	21.1	17.3	14.2	12
x2 = 0.8889	60.2	46.1	35.7	28	22.5	18.3	15	12.5	10.7

CS(C)=O + CC[NH+](CC)CC.O=P([O-])(O)O
101 kPa, x1 = 1
Details	viscosity [mPa·s]
298.15 K	1.99
303.15 K	1.8
308.15 K	1.65

CCCCCCCCCCCCCC[P+](CCCCCC)(CCCCCC)CCCCCC.N#Cc1ccc[n-]1 + CCCCCC[n+]1ccn(C)c1.O=S(=O)([N-]S(=O)(=O)C(F)(F)F)C(F)(F)F
viscosity [mPa·s], 100 kPa
Details	x2 = 0	x2 = 0.2	x2 = 0.4	x2 = 0.504
283.15 K	–	–	940	810
288.15 K	800	790	–	–

C[N+](C)(C)CCO.NCC(=O)[O-] + CO
viscosity [mPa·s], 100 kPa
Details	x1 = 0.1002	x1 = 0.2001	x1 = 0.2997	x1 = 0.4004	x1 = 0.4994	x1 = 0.6	x1 = 0.6997	x1 = 0.8001	x1 = 0.9	x1 = 1
298.15 K	2.3	6.55	15.49	34.55	64.1	108.4	170.2	260	369	501
303.15 K	2.08	5.72	13.06	28.31	50.8	84	128.3	193.9	269	363
308.15 K	1.89	5.03	11.1	23.47	40.9	66.3	99.9	146.7	201	264
313.15 K	1.73	4.47	9.55	19.74	33.58	53.4	78.9	111.5	153.5	201
318.15 K	1.58	3.98	8.28	16.74	27.95	45.2	62.8	89.7	118.8	154.5
323.15 K	1.46	3.57	7.27	14.32	23.49	37.8	51.2	71.9	94.3	121.1

CCCC[N+](CCCC)(CCCC)CCCC.[Cl-] + Oc1ccccc1
Details	viscosity [mPa·s]
323.15 K, 100 kPa, x1 = 0.167	37.2

CS(C)=O + COCCCC[n+]1ccn(C)c1.C[C@@H](O)[C@H](N)C(=O)[O-]
100 kPa, x2 = 0
Details	viscosity [mPa·s]
288.15 K	2.47
293.15 K	2.21
298.15 K	1.99
303.15 K	1.81
308.15 K	1.65
313.15 K	1.51
318.15 K	1.39
